# Values of other authors in patent publication US20140316333A1, “DISSOLVING SOLID SOLUTION PERFORATOR PATCH FOR MIGRAINE TREATMENT” (priority 2011, published 2014).
# Conditions: oral dosage
structure (smiles),measurement,setting,value
"CN1C[C@H](C(=O)N[C@]2(C)O[C@@]3(O)[C@@H]4CCCN4C(=O)[C@H](Cc4ccccc4)N3C2=O)C[C@@H]2c3cccc4[nH]cc(c34)C[C@H]21 [DHE, dihydroergotamine]",time to have efficacy for reducing migraine headache,,2 to 3 h
same,active unchanged drug that reaches the blood stream,"about 20-30 mg, estimated",2-10%
